From patent publication US12486300B2, “Mithramycin oxime derivatives having increased selectivity and anti-cancer activity” (University of Kentucky Research Foundation, priority 2018, dated 2025)

tested on: TC32 Ewing sarcoma cells, expressing EWS-FLI1; assay: Growth inhibition assay, TC32 cells; format: cell-based; settings: ratio of GI50 PC3 to TC32
Procedure: Growth inhibition assay to assess cytotoxicity in ETS vs non-ETS expressing cells. Cells were seeded in clear 96-well plates (VWR, Radnor, PA). Seeding densities were optimized for each cell line to support 5 days of linear growth. Following a 24 hours attachment period, cells in duplicate wells were treated with half-log increments of respective compounds (0 nM and 0.3 nM-10 μM). Working stocks were prepared from an initial 10 mM drug stock diluted in either 100% ethanol or dimethyl sulfoxide (DMSO). All wells contained a final concentration of 0.1% (v/v) respective organic solvent. Immediately following treatment, cell viability was measured for vehicle control (Day 0) wells. Cell viability was measured in the remaining wells after 72 hours of incubation with compound or vehicle control (Day 3).
Percent viability, relative to the initial cell seeding concentration, was calculated by ((TreatmentDay3−Vehicle ControlDay0)/(Vehicle ControlDay3−Vehicle ControlDay0))×100. Percent cell viability was plotted as a function of compound concentration (Log [M]) and the data were fit using a 3-parameter non-linear model with fixed Hill slope constant and 4-parameter non-linear model with variable Hill slope constant. The model with the best curve fit was used to estimate the GI50 in GraphPad Prism 7.0 software (GraphPad Software, La Jolla, CA). The 3-parameter equation used was Y=Bottom+(Top−Bottom)/(1+10[…]((X−Log[IC50]))). The 4-parameter equation used was Y=Bottom+(Top−Bottom)/(1+10[…]((Log[IC50]−X)*Hillslope)). Top and Bottom are plateaus in the units of the Y-axis (response). IC50 is the response (Y-axis) halfway between Top and Bottom plateaus.
All compounds were tested at least once in multi-well replicates and each experiment included one a control compound (i.e., MTM) to ensure the stable response of the cell lines. The selectivity index was estimated by determining the ratio of GI50 estimates between ETS fusion negative and ETS fusion positive cell lines.

Point of comparison: `COC(C(=NOCC(=O)Nc1cncnc1)C(O)C(C)O)C1Cc2cc3cc(OC4CC(OC5CC(O)C(O)C(C)O5)C(O)C(C)O4)c(C)c(O)c3c(O)c2C(=O)C1OC1CC(OC2CC(OC3CC(C)(O)C(O)C(C)O3)C(O)C(C)O2)C(O)C(C)O1` (centres unmarked) [MTM (50)], “PC:TC32 (cellular selectivity)” value 2.7. Against it:
- COC(C(=NOCC(=O)NC(Cc1c[nH]c2ccccc12)C(=O)Nc1ccccc1)C(O)C(C)O)C1Cc2cc3cc(OC4CC(OC5CC(O)C(O)C(C)O5)C(O)C(C)O4)c(C)c(O)c3c(O)c2C(=O)C1OC1CC(OC2CC(OC3CC(C)(O)C(O)C(C)O3)C(O)C(C)O2)C(O)C(C)O1 (centres unmarked) [MTM (47)] — the same, 2.7
- COC(C(=NO)C(O)C(C)O)C1Cc2cc3cc(OC4CC(OC5CC(O)C(O)C(C)O5)C(O)C(C)O4)c(C)c(O)c3c(O)c2C(=O)C1OC1CC(OC2CC(OC3CC(C)(O)C(O)C(C)O3)C(O)C(C)O2)C(O)C(C)O1 (centres unmarked) [MTM (3)] — lower, 1.86
- COC(=O)C(Cc1ccccc1)NC(=O)C(Cc1c[nH]c2ccccc12)NC(=O)CON=C(C(O)C(C)O)C(OC)C1Cc2cc3cc(OC4CC(OC5CC(O)C(O)C(C)O5)C(O)C(C)O4)c(C)c(O)c3c(O)c2C(=O)C1OC1CC(OC2CC(OC3CC(C)(O)C(O)C(C)O3)C(O)C(C)O2)C(O)C(C)O1 (centres unmarked) [MTM (25)] — higher, 5.98
- COC(C(=NOCC(=O)NC(Cc1c[nH]c2ccccc12)C(=O)NCc1cnccn1)C(O)C(C)O)C1Cc2cc3cc(OC4CC(OC5CC(O)C(O)C(C)O5)C(O)C(C)O4)c(C)c(O)c3c(O)c2C(=O)C1OC1CC(OC2CC(OC3CC(C)(O)C(O)C(C)O3)C(O)C(C)O2)C(O)C(C)O1 (centres unmarked) [MTM (56)] — lower, 1.9
- COC(C(=NOCC(=O)NC(Cc1c[nH]c2ccccc12)C(=O)NC(Cc1c[nH]c2ccccc12)c1nc(C)no1)C(O)C(C)O)C1Cc2cc3cc(OC4CC(OC5CC(O)C(O)C(C)O5)C(O)C(C)O4)c(C)c(O)c3c(O)c2C(=O)C1OC1CC(OC2CC(OC3CC(C)(O)C(O)C(C)O3)C(O)C(C)O2)C(O)C(C)O1 (centres unmarked) [MTM (58)] — lower, 2.4
- COC(=O)C(Cc1c[nH]c2ccccc12)NC(=O)C(Cc1c[nH]c2ccccc12)NC(=O)CON=C(C(O)C(C)O)C(OC)C1Cc2cc3cc(OC4CC(OC5CC(O)C(O)C(C)O5)C(O)C(C)O4)c(C)c(O)c3c(O)c2C(=O)C1OC1CC(OC2CC(OC3CC(C)(O)C(O)C(C)O3)C(O)C(C)O2)C(O)C(C)O1 (centres unmarked) [MTM (24)] — higher, 6.9
- COc1ccc(CON=C(C(O)C(C)O)C(OC)C2Cc3cc4cc(OC5CC(OC6CC(O)C(O)C(C)O6)C(O)C(C)O5)c(C)c(O)c4c(O)c3C(=O)C2OC2CC(OC3CC(OC4CC(C)(O)C(O)C(C)O4)C(O)C(C)O3)C(O)C(C)O2)cc1 (centres unmarked) [MTM (14E)] — lower, 2.05
- COC(C(=NOCC(=O)Nc1ccc2[nH]c(C)cc2c1)C(O)C(C)O)C1Cc2cc3cc(OC4CC(OC5CC(O)C(O)C(C)O5)C(O)C(C)O4)c(C)c(O)c3c(O)c2C(=O)C1OC1CC(OC2CC(OC3CC(C)(O)C(O)C(C)O3)C(O)C(C)O2)C(O)C(C)O1 (centres unmarked) [MTM (72)] — higher, 20.9
- COC(C(=NOCC(=O)NC(Cc1c[nH]c2ccccc12)C(=O)NCc1c[nH]c2ccccc12)C(O)C(C)O)C1Cc2cc3cc(OC4CC(OC5CC(O)C(O)C(C)O5)C(O)C(C)O4)c(C)c(O)c3c(O)c2C(=O)C1OC1CC(OC2CC(OC3CC(C)(O)C(O)C(C)O3)C(O)C(C)O2)C(O)C(C)O1 (centres unmarked) [MTM (48)] — lower, 2.30
- C#CCON=C(C(O)C(C)O)C(OC)C1Cc2cc3cc(OC4CC(OC5CC(O)C(O)C(C)O5)C(O)C(C)O4)c(C)c(O)c3c(O)c2C(=O)C1OC1CC(OC2CC(OC3CC(C)(O)C(O)C(C)O3)C(O)C(C)O2)C(O)C(C)O1 (centres unmarked) [MTM (17Z)] — lower, 1.89
- COC(C(=NOCc1ccccc1)C(O)C(C)O)C1Cc2cc3cc(OC4CC(OC5CC(O)C(O)C(C)O5)C(O)C(C)O4)c(C)c(O)c3c(O)c2C(=O)C1OC1CC(OC2CC(OC3CC(C)(O)C(O)C(C)O3)C(O)C(C)O2)C(O)C(C)O1 (centres unmarked) [MTM (2)] — lower, 1.08
- CCON=C(C(O)C(C)O)C(OC)C1Cc2cc3cc(OC4CC(OC5CC(O)C(O)C(C)O5)C(O)C(C)O4)c(C)c(O)c3c(O)c2C(=O)C1OC1CC(OC2CC(OC3CC(C)(O)C(O)C(C)O3)C(O)C(C)O2)C(O)C(C)O1 (centres unmarked) [MTM (4)] — lower, 1.15
- COC(C(=NOCC(=O)NCCc1c[nH]c2ccccc12)C(O)C(C)O)C1Cc2cc3cc(OC4CC(OC5CC(O)C(O)C(C)O5)C(O)C(C)O4)c(C)c(O)c3c(O)c2C(=O)C1OC1CC(OC2CC(OC3CC(C)(O)C(O)C(C)O3)C(O)C(C)O2)C(O)C(C)O1 (centres unmarked) [MTM (18)] — higher, 6.44
- COC(C(=NNC(=O)CCCCCN1C(=O)C=CC1=O)C(O)C(C)O)C1Cc2cc3cc(OC4CC(OC5CC(O)C(O)C(C)O5)C(O)C(C)O4)c(C)c(O)c3c(O)c2C(=O)C1OC1CC(OC2CC(OC3CC(C)(O)C(O)C(C)O3)C(O)C(C)O2)C(O)C(C)O1 (centres unmarked) [MTM (33)] — higher, 3.9
- COC(C(=NOCC(=O)Nc1ccc2scnc2c1)C(O)C(C)O)C1Cc2cc3cc(OC4CC(OC5CC(O)C(O)C(C)O5)C(O)C(C)O4)c(C)c(O)c3c(O)c2C(=O)C1OC1CC(OC2CC(OC3CC(C)(O)C(O)C(C)O3)C(O)C(C)O2)C(O)C(C)O1 (centres unmarked) [MTM (69)] — higher, 11.4
- COC(C(=NOCC(=O)NCc1ccc2cc[nH]c2c1)C(O)C(C)O)C1Cc2cc3cc(OC4CC(OC5CC(O)C(O)C(C)O5)C(O)C(C)O4)c(C)c(O)c3c(O)c2C(=O)C1OC1CC(OC2CC(OC3CC(C)(O)C(O)C(C)O3)C(O)C(C)O2)C(O)C(C)O1 (centres unmarked) [MTM (64)] — higher, 12.3
- COC(C(=NOCC(=O)NCc1ccccc1)C(O)C(C)O)C1Cc2cc3cc(OC4CC(OC5CC(O)C(O)C(C)O5)C(O)C(C)O4)c(C)c(O)c3c(O)c2C(=O)C1OC1CC(OC2CC(OC3CC(C)(O)C(O)C(C)O3)C(O)C(C)O2)C(O)C(C)O1 (centres unmarked) [MTM (31)] — lower, 1.83
- COC(C(=NOCC(=O)Nc1ccncc1)C(O)C(C)O)C1Cc2cc3cc(OC4CC(OC5CC(O)C(O)C(C)O5)C(O)C(C)O4)c(C)c(O)c3c(O)c2C(=O)C1OC1CC(OC2CC(OC3CC(C)(O)C(O)C(C)O3)C(O)C(C)O2)C(O)C(C)O1 (centres unmarked) [MTM (45)] — lower, 2.4
- COC(C(=NOCC(=O)Nc1ccc2ncsc2c1)C(O)C(C)O)C1Cc2cc3cc(OC4CC(OC5CC(O)C(O)C(C)O5)C(O)C(C)O4)c(C)c(O)c3c(O)c2C(=O)C1OC1CC(OC2CC(OC3CC(C)(O)C(O)C(C)O3)C(O)C(C)O2)C(O)C(C)O1 (centres unmarked) [MTM (70)] — higher, 7.2
- COC(=O)C(Cc1ccccc1)NC(=O)CON=C(C(O)C(C)O)C(OC)C1Cc2cc3cc(OC4CC(OC5CC(O)C(O)C(C)O5)C(O)C(C)O4)c(C)c(O)c3c(O)c2C(=O)C1OC1CC(OC2CC(OC3CC(C)(O)C(O)C(C)O3)C(O)C(C)O2)C(O)C(C)O1 (centres unmarked) [MTM (30)] — lower, 2.08
- COC(C(=NOCC(=O)Nc1cccnc1)C(O)C(C)O)C1Cc2cc3cc(OC4CC(OC5CC(O)C(O)C(C)O5)C(O)C(C)O4)c(C)c(O)c3c(O)c2C(=O)C1OC1CC(OC2CC(OC3CC(C)(O)C(O)C(C)O3)C(O)C(C)O2)C(O)C(C)O1 (centres unmarked) [MTM (49)] — lower, 2.4
- COC(C(=NOCC(=O)NC(Cc1c[nH]c2ccccc12)C(=O)NC(C)CO)C(O)C(C)O)C1Cc2cc3cc(OC4CC(OC5CC(O)C(O)C(C)O5)C(O)C(C)O4)c(C)c(O)c3c(O)c2C(=O)C1OC1CC(OC2CC(OC3CC(C)(O)C(O)C(C)O3)C(O)C(C)O2)C(O)C(C)O1 (centres unmarked) [MTM (55)] — the same, 2.7
- COC(C(=NOCC(=O)Nc1ccccc1)C(O)C(C)O)C1Cc2cc3cc(OC4CC(OC5CC(O)C(O)C(C)O5)C(O)C(C)O4)c(C)c(O)c3c(O)c2C(=O)C1OC1CC(OC2CC(OC3CC(C)(O)C(O)C(C)O3)C(O)C(C)O2)C(O)C(C)O1 (centres unmarked) [MTM (32)] — lower, 1.11
- COC(C(=NOCC(=O)Nc1cccc2cc[nH]c12)C(O)C(C)O)C1Cc2cc3cc(OC4CC(OC5CC(O)C(O)C(C)O5)C(O)C(C)O4)c(C)c(O)c3c(O)c2C(=O)C1OC1CC(OC2CC(OC3CC(C)(O)C(O)C(C)O3)C(O)C(C)O2)C(O)C(C)O1 (centres unmarked) [MTMox (73)] — higher, 5.9
- COC(C(=NOCC(=O)Nc1ccc2[nH]ccc2c1)C(O)C(C)O)C1Cc2cc3cc(OC4CC(OC5CC(O)C(O)C(C)O5)C(O)C(C)O4)c(C)c(O)c3c(O)c2C(=O)C1OC1CC(OC2CC(OC3CC(C)(O)C(O)C(C)O3)C(O)C(C)O2)C(O)C(C)O1 (centres unmarked) [MTM (60)] — higher, 10
- COC(C(=NOCC(=O)Nc1ccc2cnccc2c1)C(O)C(C)O)C1Cc2cc3cc(OC4CC(OC5CC(O)C(O)C(C)O5)C(O)C(C)O4)c(C)c(O)c3c(O)c2C(=O)C1OC1CC(OC2CC(OC3CC(C)(O)C(O)C(C)O3)C(O)C(C)O2)C(O)C(C)O1 (centres unmarked) [MTM (75)] — higher, 118
- COC(C(=NOCC(=O)Nc1ccc2[nH]cnc2c1)C(O)C(C)O)C1Cc2cc3cc(OC4CC(OC5CC(O)C(O)C(C)O5)C(O)C(C)O4)c(C)c(O)c3c(O)c2C(=O)C1OC1CC(OC2CC(OC3CC(C)(O)C(O)C(C)O3)C(O)C(C)O2)C(O)C(C)O1 (centres unmarked) [MTM (71)] — higher, 3.2
- C=CCON=C(C(O)C(C)O)C(OC)C1Cc2cc3cc(OC4CC(OC5CC(O)C(O)C(C)O5)C(O)C(C)O4)c(C)c(O)c3c(O)c2C(=O)C1OC1CC(OC2CC(OC3CC(C)(O)C(O)C(C)O3)C(O)C(C)O2)C(O)C(C)O1 (centres unmarked) [MTM (10)] — lower, 1.10
